# Literature values in patent US20160175482A1, “COMPOSITION AND DELIVERY SYSTEM” (LOCATE THERAPEUTICS LIMITED, priority 2013, published 2016).
smiles,measurement,value
Cc1ccc(C)c(N=Nc2cc(C)c(N=Nc3c(O)ccc4ccccc34)cc2C)c1 [Oil Red-O],log P,6.85
